Laboratory results taken from patent publication US20230105599A1, “Aqueous Formulations Containing Povidone Iodine for Effective Treatment and Prevention of Virus Infections” (priority 2020, published 2023).
Where two headings read alike, the source gives them in different places.

Legend:
Format in all cases: cell-based
[1] = test system: Human Adenovirus Type 5; assay: In-vitro anti-viral (virucidal) assay, cytopathic effect study with human AE549 cells; details: 70% ethanol
Protocol: To determine whether contact with aqueous formulation of this invention containing 0.6% PVP-I inactivates (“kills”) virus, the aqueous formulation was mixed directly with virus for 30±5 minutes, then neutralized and the surviving virus was quantified.

[2] = test system: SARS-CoV-2; details: 45% ethanol control, 37° C.; for Viral Titer: mean of 3 ± SD
[3] = test system: Influenza Virus A H1N1, California July 2009; assay: In vitro virucidal assay, endpoint dilution CCID50 on MDCK cells; details: 95% ethanol control, 37° C.
Protocol: Formulation B containing 0.6% PVP-I (for nasal spray) was tested for virucidal assay against influenza virus (Influenza Virus A H1N1, California July 2009). Formulation B was diluted with artificial nasal fluid as follows: neat, 1/1.8, 1/3.2 and 1/10. Other controls were 95% ethanol and MEM solution. Virus solution was added to test dilution at 1/10 and incubated for 30 seconds and 2 minutes at 37° C. And thus, the final concentration of solution tested were 90%, 50%, 28% and 9%. Following the incubation period, samples were neutralized by a 1/10 dilution in test media containing 10% FBS. The surviving virus in each tube was determined using a standard endpoint dilution CCID50 assay as follows. Samples were diluted 1/10 in series and each dilution added to 4 replicate columns of 96-well plates seeded with 80-100% confluent MDCK cells. Plates were incubated for 6 days at 37° C. with 5% CO2 then scored for the presence or absence of cytopathic effect (CPE). Virus titer (CCID50) was calculated using the Reed-Muench method (1948). The log reduction value (LRV) of the compound compared to the virus control was calculated. The entire procedure was repeated in triplicate. Toxicity controls were performed to show whether test compound toxicity would confound results by killing the cells in the absence of virus.

## CCO [Ethanol]
[1]
  virucidal effect of ethanol control: fully effective
[2]; contact time 0.5 min
  LRV (log reduction value): 3.5
  Viral Titer: <1.7 ± 0.0 Log10 CCID50 of virus per mL
[2]; contact time 2 min
  LRV (log reduction value): 1.9
  Viral Titer: <1.7 ± 0.0 Log10 CCID50 of virus per mL
[2]; contact time 10 min
  LRV (log reduction value): 3.3
  Viral Titer: <0.67 ± 0.0 Log10 CCID50 of virus per mL
[3]; contact time 0.5 min
  LRV (log reduction value): 1.5
  Viral Titer: 4.5 Log10 CCID50 of virus per mL
[3]; contact time 2 min
  LRV (log reduction value): 4.4
  Viral Titer: 2.3 Log10 CCID50 of virus per mL
